Experiments:
[1] = test system: IFN-γ; assay: IFN-γ production by splenocytes of ovalbumin-sensitised rats treated orally (Example 8); type: in vivo, Brown-Norway rats; conditions: ADA orally 500 and 1000 mg/kg twice daily, FIG. 4
Description: Brown-Norway rats are actively sensitised with 5% ovalbumin in 0.9% NaCl. 24 hours later, bronchial reactivity to metacholine is measured on the anaesthetised rats. Immediately measurement of bronchial reactivity is complete, splenocytes are taken from these rats and cultured to determine IFN-γ production by these cells.
ADA is administered 24 hours before the beginning of the ovalbumin sensitisation phase and daily throughout the duration of the test, except for the days of the measurements. The ADA is administered orally in suspension in 1% methylcellulose at a twice daily dosage of 500 mg/kg and 1000 mg/kg bodyweight.
The quantities of IFN-γ are plotted on the y-axis in pg/mg of protein. On the x-axis, the empty bars A to F correspond to the following experiments: […]

[2] = test system: IL-5; assay: IL-5 production by PHA-activated PBMC, ELISA (Example 1); type: cell-based, human; conditions: for production of IL-5 inhibited, on average: average of five donors, PBMC; for IL-5 content as a percentage of the control: PHA-activated PBMC, 72 h
Description: Peripheral mononuclear blood cells (PMBC) from five healthy human donors are isolated in the conventional manner from 50 ml of their blood and then purified by density gradient centrifugation (Lymphoprep). The cells (5.10^6 cells/ml) are activated by 0.3 μg/ml of phytohaemagglutinin (PHA) and cultured for 72 hours at 37° C. in the presence of various concentrations of ADA (20, 10, 5, 1, 0.2 and 0.04 μg/ml). The culture medium consists of RPMI 1640 complemented with 10% foetal calf serum and glutamine and contains mercaptoethanol. The ADA solutions are prepared in dimethyl sulfoxide (DMSO), the working concentration of DMSO during the experiments being 0.1%. Said experiments are performed on 96 well plates (200 μl/well) and, once the plates have been centrifuged at 1500 revolutions per minute for 10 minutes, the supernatants are harvested and the IL-5 content thereof analysed by an ELISA immunoenzymatic assay.

[3] = test system: TNF-α; assay: TNF-α production by purified CD4 T lymphocytes stimulated by PMA + anti-CD28 (Example 4); type: cell-based, human; conditions: for TNF-α in % relative to control: purified CD4 T lymphocytes, PMA + anti-CD28, 5 donors
Description: Purified CD4 T lymphocytes (90% purity) stimulated by PMA (phorbol myristate acetate)+anti-CD28 antibodies from healthy donors are treated with various concentrations of ADA.
(§1) In Examples 3 and 4, the results are stated as a percentage taking the medium without ADA as 100%. The concentrations corresponding to 100% are respectively 90,000 pg/ml for IL-2, 1100 pg/ml for IL-5, 1900 pg/ml for IFN-γ and 2870 pg/ml for TNF-α. The results are the mean of independent ELISA assays.

[4] = test system: IL-2; assay: In vivo serum IL-2 release after anti-CD3 145-2C11 mAb (Example 5); set-up: species or system BALB/C mice; conditions: ADA 100 mg/kg single injection one day before 145-2C11 mAb; sera at 2, 4, 8, 24 h; FIG. 1
Description: A single intraparenteral injection of azodicarbon-amide (ADA) at a dose of 100 mg/kg bodyweight or corresponding carrier is made into BALB/C mice (Harlan, Zeist, Netherlands) one day before intraparenteral inoculation of 25 μg of hamster 145-2C11 mAb, an anti-mouse CD3 mAb which brings about massive in vivo activation of polyclonal T cells, resulting in systemic cytokine release. Sera are collected 2, 4, 8 and 24 hours after the anti-CD3 treatment and the cytokine (IL-2, IL-4) levels are determined by an ELISA test (Genzyme).
FIGS. 1 and 2 are graphs showing, on the y-axis, the quantities of IL-2 and IL-4 in the serum as a mean of 5 test animals. […] The empty bars show the results obtained with the carrier and the shaded bars show those obtained with prior ADA treatment.

[5] = test system: IL-5; assay: IL-5 production by purified T lymphocytes (Example 3); type: cell-based, human; conditions: mean of 2 donors
Description: PBMC from three healthy donors are purified by density gradient […] (LymphoPrep). The T lymphocytes are obtained from 15.10^6 PBMC incubated for 20 to 30 minutes in a waterbath at 37° C. with 0.8 ml of a mixture of LymphoKwik® (One Lambda, Inc., CA, USA). This latter substance is a mixture of complement and specific antibody for antigen units of the cell membrane which lyses the unwanted cells (B lymphocytes, monocytes, etc.). The cells are centrifuged and then washed twice.
These cultures are treated with various concentrations of ADA.
as §1

## NC(=O)N=NC(N)=O [ADA, azodicarbon-amide]
[1]
  production of INF-γ by splenocytes: inhibitory effect
[2]; 0.2 μg/ml of ADA
  production of IL-5 inhibited, on average: 45%
[2]; 10 μg/ml of ADA
  production of IL-5 inhibited, on average: 80%
[2]; 20 μg/ml of ADA
  production of IL-5 inhibited, on average: 90%
[2]; ADA 0.04 μg/ml, Donor 1
  IL-5 content as a percentage of the control: 83 % of control
[2]; ADA 0.04 μg/ml, Donor 2
  IL-5 content as a percentage of the control: 50 % of control
[2]; ADA 0.04 μg/ml, Donor 3
  IL-5 content as a percentage of the control: 58 % of control
[2]; ADA 0.04 μg/ml, Donor 4
  IL-5 content as a percentage of the control: 46 % of control
[2]; ADA 0.04 μg/ml, Donor 5
  IL-5 content as a percentage of the control: 55 % of control
[2]; ADA 0.04 μg/ml, Mean of donors
  IL-5 content as a percentage of the control: 58 % of control
[2]; ADA 0.2 μg/ml, Donor 1
  IL-5 content as a percentage of the control: 54 % of control
[2]; ADA 0.2 μg/ml, Donor 2
  IL-5 content as a percentage of the control: 42 % of control
[2]; ADA 0.2 μg/ml, Donor 3
  IL-5 content as a percentage of the control: 63 % of control
[2]; ADA 0.2 μg/ml, Donor 4
  IL-5 content as a percentage of the control: 57 % of control
[2]; ADA 0.2 μg/ml, Donor 5
  IL-5 content as a percentage of the control: 58 % of control
[2]; ADA 0.2 μg/ml, Mean of donors
  IL-5 content as a percentage of the control: 55 % of control
[2]; ADA 1 μg/ml, Donor 1
  IL-5 content as a percentage of the control: 48 % of control
[2]; ADA 1 μg/ml, Donor 2
  IL-5 content as a percentage of the control: 29 % of control
[2]; ADA 1 μg/ml, Donor 3
  IL-5 content as a percentage of the control: 57 % of control
[2]; ADA 1 μg/ml, Donor 4
  IL-5 content as a percentage of the control: 37 % of control
[2]; ADA 1 μg/ml, Donor 5
  IL-5 content as a percentage of the control: 49 % of control
[2]; ADA 1 μg/ml, Mean of donors
  IL-5 content as a percentage of the control: 44 % of control
[2]; ADA 5 μg/ml, Donor 1
  IL-5 content as a percentage of the control: 44 % of control
[2]; ADA 5 μg/ml, Donor 2
  IL-5 content as a percentage of the control: 2 % of control
[2]; ADA 5 μg/ml, Donor 3
  IL-5 content as a percentage of the control: 23 % of control
[2]; ADA 5 μg/ml, Donor 4
  IL-5 content as a percentage of the control: 31 % of control
[2]; ADA 5 μg/ml, Donor 5
  IL-5 content as a percentage of the control: 34 % of control
[2]; ADA 5 μg/ml, Mean of donors
  IL-5 content as a percentage of the control: 27 % of control
[2]; ADA 10 μg/ml, Donor 1
  IL-5 content as a percentage of the control: 29 % of control
[2]; ADA 10 μg/ml, Donor 2
  IL-5 content as a percentage of the control: 2 % of control
[2]; ADA 10 μg/ml, Donor 3
  IL-5 content as a percentage of the control: 28 % of control
[2]; ADA 10 μg/ml, Donor 4
  IL-5 content as a percentage of the control: 14 % of control
[2]; ADA 10 μg/ml, Donor 5
  IL-5 content as a percentage of the control: 31 % of control
[2]; ADA 10 μg/ml, Mean of donors
  IL-5 content as a percentage of the control: 21 % of control
[2]; ADA 20 μg/ml, Donor 1
  IL-5 content as a percentage of the control: 9 % of control
[2]; ADA 20 μg/ml, Donor 2
  IL-5 content as a percentage of the control: 2 % of control
[2]; ADA 20 μg/ml, Donor 3
  IL-5 content as a percentage of the control: 26 % of control
[2]; ADA 20 μg/ml, Donor 4
  IL-5 content as a percentage of the control: 5 % of control
[2]; ADA 20 μg/ml, Donor 5
  IL-5 content as a percentage of the control: 7 % of control
[2]; ADA 20 μg/ml, Mean of donors
  IL-5 content as a percentage of the control: 10 % of control
[2]; culture medium without mercaptoethanol, compared with Table 1
  IL-5 production, comparable tests in the absence of mercaptoethanol: relatively similar results
[3]; 20 μg/ml of ADA, donors of Example 4
  production of TNF-α: inhibited
[3]; ADA 1 μg/ml
  TNF-α in % relative to control: 90 % relative to control
[3]; ADA 5 μg/ml
  TNF-α in % relative to control: 48 % relative to control
[3]; ADA 10 μg/ml
  TNF-α in % relative to control: 32 % relative to control
[3]; ADA 20 μg/ml
  TNF-α in % relative to control: 14 % relative to control
[4]
  release of IL-2 into serum: significant reduction
[5]; ADA 1 μg/ml
  IL-5 in % relative to control: 67 % relative to control
[5]; ADA 5 μg/ml
  IL-5 in % relative to control: 60 % relative to control
[5]; ADA 10 μg/ml
  IL-5 in % relative to control: 40 % relative to control
[5]; ADA 20 μg/ml
  IL-5 in % relative to control: 16 % relative to control
